The values below are quoted from earlier work in US20010000228A1, “Use of a modified baculovirus containing exogenous nucleic acid for the manufacture of a medicament for delivering said nucleic acid to the hepatocytes” (IMPERIAL COLLEGE INNOVATIONS LIMITED, priority 1997, published 2001).

For the series, the system named is HBV. The following applies: therapy against HBV.

Interferon α: the “cases in which therapy is effective” value is listed as “around 30%”.
